Values quoted from earlier work in patent publication US20220361717A1, “Anti-Pathogenic Hand Sanitization Station” (priority 2021, published 2022).
Entries after “also recorded” stand apart in the source; their conditions may differ.

What was measured:
[1] = tested on: Bacteria: Gram-positive; Gram-negative; conditions: copolymerization of antimicrobial monomer and styrene; effect on the potency of the monomer
[2] = tested on: Bacteria: S. Aureus; P. aeruginosa; E. coli
[3] = tested on: Bacteria: Pseudomonas aeruginosa; Staphylococccus
Bacteria: E-coli = conditions: value = inhibited species
[4] = tested on: Bacteria: E. coli; S. aureus; S. typhimurium
[5] = tested on: Bacteria: Gram-postive bacteria; conditions: homopolymer versus model compound p-ethylbenzyl tetramethylene sulforium tetrafluoroborate
[6] = tested on: Bacteria: S. aureus; E. coli; conditions: value = inhibited species

C=CC(=O)Nc1cccc(C)c1
Comparison of Polymers with Monomer [1]: styrene decreases

C=C(C)C(=O)OCC(O)CSc1nnc(C)s1 (stereo not shown)
Comparison of Polymers with Monomer ([2]; homopolymer effectiveness versus the monomer): more | Inhibited Microbial Species ([2]; value = inhibited species): Bacteria: S. Aureus;; also recorded: P. aeruginosa;; also recorded: E. coli;

C=CC(=O)Oc1cc(Cl)ccc1Oc1ccc(Cl)cc1Cl
Comparison of Polymers with Monomer ([3]; homopolymer and copolymers with methyl methacrylate, styrene versus the monomer): less effective | Inhibited Microbial Species ([3]; value = inhibited species, 'Pseudomonas aeruginosa' wrapped over cells): Staphylococccus

C=CC(=O)N1C(C)(C)NC(=O)C1(C)C
Inhibited Microbial Species (Bacteria: E-coli): Bacteria: E-coli

C=CC(=O)Oc1ccc(Cl)c2cccnc12
Comparison of Polymers with Monomer ([4]; homopolymer and copolymers with acrylamide versus the monomer): less effective than | Inhibited Microbial Species ([4]; value = inhibited species): S. aureus;; also recorded: S. typhimurium

C=Cc1ccc(C[S+]2CCCC2)cc1
Comparison of Polymers with Monomer [5]: is more effective

C=C(C)C(=O)OCCOC(=O)C(C)CC1(CCCCCCCC)CCC(CCCCCCCC)(CC(C)C(=O)OCCOC(=O)C(=C)C)CC1 (stereo not shown)
Inhibited Microbial Species [6]: Bacteria: S. aureus;; also recorded: E. coli
